Measured values reported in patent publication US20220370429A1, “AROMATIC HETEROCYCLIC COMPOUND HAVING TRICYCLIC STRUCTURE, AND PREPARATION METHOD THEREFOR AND APPLICATION THEREOF” (SHANGHAI LONGWOOD BIOPHARMACEUTICALS CO., LTD., priority 2019, published 2022).

Molecular target: T1, PD-1/PD-L1 (Homo sapiens, UniProt Q9NZQ7)
T1 construct: Recombinant human PD-L1 protein (19-238) with a His-tagged at the C-terminus; purchased AcroBiosystems PD1-H5229 (PD-L1); PD1-H5257 (PD-1)
Test: PD-1/PD-L1 Homogeneous Time-Resolved Fluorescence (HTRF) Binding Assay
Details: 25° C., PBS pH 7.4, ~3 nM PD1, 10 nM PD-L1
Experimental: Example A: PD-1/PD-L1 Homogeneous Time-Resolved Fluorescence (HTRF) Binding Assay
Assays were performed in standard black 384-well polystyrene plates and a final volume was 20 μL. The inhibitor was first serially diluted with DMSO and added to the wells of the plate, followed by the addition of other reaction components. The final concentration of DMSO in the assay was 1%. Assays were performed at 25° C. in PBS buffer (pH 7.4) containing 0.05% Tween-20 and 0.1% BSA. Recombinant human PD-L1 protein (19-238) with a His-tagged at the C-terminus was purchased from AcroBiosystems (PD1-H5229). Recombinant human PD-1 protein (25-167) with an Fc tag at the C-terminus was also purchased from AcroBiosystems (PD1-H5257). The PD-L1 and PD-1 proteins were diluted in assay buffer and then […] of the solution was extracted and added to the wells of the plate. Plates were centrifuged and proteins and inhibitors were preincubated for 40 minutes. After incubation, 0.1 μl of HTRF detection buffer containing europium […] labeled anti-human IgG (PerkinElmer-AD0212), Fc-specific and anti-His SureLight®-Allophycocyanin (APC, PerkinElmer-AD0059H) conjugated antibodies was added. After centrifugation, the plates were incubated at 25° C. for 60 minutes. Data was read in a PHERAstar FS plate reader (665 nm/620 nm ratio). Final concentrations in the assay were ˜3 nM PD1, 10 nM PD-L1, 1 nM europium anti-human IgG, and 20 nM anti-His-allophycocyanin. Activity data were fitted using GraphPad Prism 5_0 software to derive IC50 values for inhibitors.

T1 sequence (Q9NZQ7 19-238): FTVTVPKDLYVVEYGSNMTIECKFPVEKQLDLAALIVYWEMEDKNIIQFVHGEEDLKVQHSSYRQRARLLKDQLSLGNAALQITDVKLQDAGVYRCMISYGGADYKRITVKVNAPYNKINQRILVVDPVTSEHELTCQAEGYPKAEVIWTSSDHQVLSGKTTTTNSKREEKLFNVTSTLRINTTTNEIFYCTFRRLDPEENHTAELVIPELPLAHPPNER

Row | IC50 [µM] | SMILES
1 | ≤ 0.01 | COc1nc(O[C@H]2CCc3c(-c4cccc(-c5nc6cc7c(c(C#N)c6o5)CC[C@H]7N5CC[C@@H](C(=O)O)C5)c4Cl)cccc32)c(C(F)F)cc1CN1CC[C@@H](O)C1 [Compound 086]
2 | ≤ 0.01 | COc1nc(O[C@H]2CCc3c(-c4cccc(-c5nc6cc7c(c(C#N)c6o5)CCC7N5CC[C@@H](C(=O)O)C5)c4Cl)cccc32)c(Cl)cc1CN1CC[C@@H](O)C1 (stereo partly drawn) [Compound 005]
3 | ≤ 0.01 | COc1nc(O[C@H]2CCc3c(-c4cccc(-c5nc6cc7c(c(C#N)c6o5)CC[C@H]7N5CC[C@@H](C(=O)O)C5)c4Cl)cccc32)ccc1CN1CC[C@@H](O)C1 [Compound 092]
4 | ≤ 0.01 | COc1nc(O[C@H]2CCc3c(-c4cccc(-c5nc6cc7c(c(C#N)c6o5)CC[C@H]7N5CC[C@@H](C(=O)NS(=O)(=O)C6CC6)C5)c4C)cccc32)c(C(F)F)cc1CN1CC[C@@H](O)C1 [Compound 087]
5 | ≤ 0.01 | COc1nc(O[C@H]2CCc3c(-c4cccc(-c5nc6cc7c(c(C#N)c6o5)CC[C@H]7N5CC[C@@H](C(=O)NS(=O)(=O)C6(C)CC6)C5)c4C)cccc32)c(Cl)cc1CN1CC[C@@H](O)C1 [Compound 098]
6 | ≤ 0.01 | COc1nc(O[C@H]2CCc3c(-c4cccc(-c5nc6cc7c(c(C#N)c6o5)CC[C@H]7N5CC[C@@H](C(=O)O)C5)c4C)cccc32)ccc1CN1CC[C@@H](O)C1 [Compound 091]
7 | ≤ 0.01 | COc1nc(O[C@H]2CCc3c(-c4cccc(-c5nc6cc7c(c(C#N)c6o5)CCC7N5CC[C@@H](C(=O)O)C5)c4Cl)cccc32)ccc1CN1CC[C@@H](O)C1 (stereo partly drawn) [Compound 004]
8 | ≤ 0.01 | COc1nc(O[C@H]2CCc3c(-c4cccc(-c5nc6cc7c(c(C#N)c6o5)CC[C@H]7N5CC[C@@H](C(=O)NS(=O)(=O)C6CC6)C5)c4C)cccc32)c(Cl)cc1CN1CC[C@@H](O)C1 [Compound 079]
9 | ≤ 0.01 | COc1nc(O[C@H]2CCc3c(-c4cccc(-c5nc6cc7c(c(C#N)c6o5)CC[C@H]7N5CC[C@@H](C(=O)NS(=O)(=O)C6CC6)C5)c4Cl)cccc32)c(C(F)F)cc1CN1CC[C@@H](O)C1 [Compound 088]
10 | ≤ 0.01 | COc1nc(O[C@H]2CCc3c(-c4cccc(-c5nc6cc7c(c(C#N)c6o5)CC[C@H]7N5CC[C@@H](C(=O)NS(=O)(=O)C6(C)CC6)C5)c4Cl)cccc32)c(Cl)cc1CN1CC[C@@H](O)C1 [Compound 096]
11 | ≤ 0.01 | COc1nc(O[C@H]2CCc3c(-c4cccc(-c5nc6cc7c(c(C#N)c6o5)CC[C@H]7N5CC[C@@H](C(=O)NS(=O)(=O)C6(C)CC6)C5)c4C)cccc32)c(Cl)cc1CN1CC2(CCC(=O)N2)C1 [Compound 090]
12 | ≤ 0.01 | COc1nc(O[C@H]2CCc3c(-c4cccc(-c5cc6cc7c(c(C#N)c6o5)CC[C@H]7N5CC[C@@H](C(=O)NS(=O)(=O)C6CC6)C5)c4C)cccc32)c(Cl)cc1CN1CC[C@@H](O)C1 [Compound 080]
13 | ≤ 0.01 | COc1nc(O[C@H]2CCc3c(-c4cccc(-c5nc6cc7c(c(C#N)c6o5)CC[C@H]7N5CC[C@@H](C(=O)O)C5)c4Cl)cccc32)c(Cl)cc1CN1CC[C@@H](O)C1 [Compound 006]
14 | ≤ 0.01 | COc1nc(O[C@H]2CCc3c(-c4cccc(-c5nc6cc7c(c(C#N)c6o5)CC[C@H]7N5CC[C@@H](C(=O)NS(=O)(=O)C6(C)CC6)C5)c4Cl)cccc32)ccc1CN1CC[C@@H](O)C1 [Compound 097]
15 | ≤ 0.01 | COc1nc(O[C@H]2CCc3c(-c4cccc(-c5nc6cc7c(c(C#N)c6o5)CC[C@H]7N5CC[C@@H](C(=O)NS(=O)(=O)C6CC6)C5)c4Cl)cccc32)c(Cl)cc1CN1CC2(CCC(=O)N2)C1 [Compound 083]
16 | ≤ 0.01 | COc1nc(O[C@H]2CCc3c(-c4cccc(-c5nc6cc7c(c(C#N)c6o5)CC[C@H]7N5CC[C@@H](C(=O)NS(=O)(=O)C6CC6)C5)c4Cl)cccc32)ccc1CN1CC[C@@H](O)C1 [Compound 093]
17 | ≤ 0.01 | COc1nc(O[C@H]2CCc3c(-c4cccc(-c5cc6cc7c(c(C#N)c6o5)CCC7N5CC[C@@H](C(=O)O)C5)c4C)cccc32)ccc1CN1CC[C@@H](O)C1 (stereo partly drawn) [Compound 001]
18 | ≤ 0.01 | COc1nc(O[C@H]2CCc3c(-c4cccc(-c5nc6cc7c(c(C#N)c6o5)CCC7N5CC[C@@H](C(=O)O)C5)c4C)cccc32)ccc1CN1CC[C@@H](O)C1 (stereo partly drawn) [Compound 003]
19 | ≤ 0.01 | COc1nc(O[C@H]2CCc3c(-c4cccc(-c5nc6cc7c(c(C#N)c6o5)CC[C@H]7N5CC[C@@H](C(=O)NS(=O)(=O)C6(C)CC6)C5)c4C)cccc32)ccc1CN1CC[C@@H](O)C1 [Compound 095]
20 | ≤ 0.01 | COc1nc(O[C@H]2CCc3c(-c4cccc(-c5nc6cc7c(c(C#N)c6o5)CC[C@H]7N5CC[C@@H](C(=O)NS(=O)(=O)C6CC6)C5)c4Cl)cccc32)c(Cl)cc1CNC[C@H]1CCC(=O)N1 [Compound 081]
21 | ≤ 0.01 | COc1nc(O[C@H]2CCc3c(-c4cccc(-c5nc6cc7c(c(C#N)c6o5)CC[C@H]7N5CC[C@@H](C(=O)NS(=O)(=O)C6CC6)C5)c4C)cccc32)ccc1CN1CC[C@@H](O)C1 [Compound 094]
